# Like-named read-outs stand apart in the source and are kept apart here. Residues, ends and D or L forms follow the SMILES beside them. *: point of attachment. Octanoyl = CCCCCCCC(=O)*
# What was measured:
# E. cloacae 118564 [1] = assay: microbe, parasite or virus in culture; assay type: cell-based, Enterobacter cloacae; conditions: 118564, 18 h
# Method in brief: (§1)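 MIC was determined by broth microdilution following CLSI guidelines. Serially varied compound concentrations were incubated with bacterial inoculum at 5 × 10^5 CFU/mL (final) for 18 h at 37 °C. Growth was scored as turbidity by absorbance at 590 nm.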
# E. cloacae 118564 [2] = assay type: cell-based, Enterobacter cloacae; conditions: for MICUTBLP: UTBLP alone
# Method in brief: (§2)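 Values derive from a two-agent checkerboard with an 18 h, 37 °C incubation. FICI cut-offs: ≤0.5 synergy, 0.5–4 additive, >4 antagonism.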
# A. baumannii AB027 = assay type: cell-based, Acinetobacter baumannii; conditions: for MICUTBLP: UTBLP alone
# Method in brief: as §2
# A. baumannii 92247 = assay type: cell-based, Acinetobacter baumannii; conditions: for MICUTBLP: UTBLP alone
# Method in brief: as §2
# A. baumannii ATCC 17978 = assay type: cell-based, Acinetobacter baumannii; conditions: for MICUTBLP: UTBLP alone
# Method in brief: as §2
# S. aureus ATCC 29213 = assay type: cell-based, Staphylococcus aureus; conditions: ATCC 29213, 18 h
# Method in brief: as §1
# MRSA ATCC 33592 = assay type: cell-based, Staphylococcus aureus; conditions: ATCC 33592, 18 h
# Method in brief: as §1
# P. aeruginosa PAO1 [3] = assay type: cell-based, Pseudomonas aeruginosa; conditions: for MICUTBLP: UTBLP alone
# Method in brief: as §2
# [4] = system: P. aeruginosa PA259-96196; assay type: cell-based, Pseudomonas aeruginosa; conditions: for MICUTBLP: UTBLP alone
# Method in brief: as §2
# [5] = system: P. aeruginosa PA262-101856; assay type: cell-based, Pseudomonas aeruginosa; conditions: for MICUTBLP: UTBLP alone
# Method in brief: as §2
# [6] = system: P. aeruginosa PA259-96196; assay: microbe, parasite or virus in culture; assay type: cell-based, Pseudomonas aeruginosa; conditions: PA259-96196, 18 h
# Method in brief: as §1
# [7] = system: P. aeruginosa PA262-101856; assay: microbe, parasite or virus in culture; assay type: cell-based, Pseudomonas aeruginosa; conditions: PA262-101856, 18 h
# Method in brief: as §1
# P. aeruginosa PAO1 [8] = assay type: cell-based, Pseudomonas aeruginosa; conditions: PAO1, 18 h
# Method in brief: as §1
# [9] = UTBLP in combination with novobiocin
# [10] = UTBLP in combination with rifampicin
# [11] = novobiocin in combination with the UTBLP
# [12] = rifampicin in combination with the UTBLP
# [13] = UTBLP in combination with chloramphenicol
# [14] = UTBLP in combination with niclosamide
# [15] = chloramphenicol in combination with the UTBLP
# [16] = niclosamide in combination with the UTBLP
compound,measurement,setting,value
CCCCCCCC(=O)NCCCC[C@H](NC(=O)CCCCCCC)C(=O)N[C@@H](CCCCN)C(=O)N[C@@H](CCCCN)C(=O)N[C@@H](CCCCN)C(=O)N[C@@H](CCCCN)C(N)=O [UTBLP 5] (Octanoyl-K(Octanoyl)KKKK-NH2),MIC,E. cloacae 118564 [1],> 128 µg/mL
same,Interpretation,E. cloacae 118564 [2]; UTBLP + novobiocin,Synergy (FICI ≤ 0.5 is synergistic)
same,Interpretation,E. cloacae 118564 [2]; UTBLP + rifampicin,Synergy (FICI ≤ 0.5 is synergistic)
same,MICUTBLP,E. cloacae 118564 [2]; plate with novobiocin,> 128 µg/mL
same,MICUTBLP,E. cloacae 118564 [2]; plate with rifampicin,> 128 µg/mL
same,MICUTBLP [MICcombo],E. cloacae 118564 [2]; [9],16 µg/mL
same,MICUTBLP [MICcombo],E. cloacae 118564 [2]; [10],8 µg/mL
same,MICantibiotic [MICcombo],E. cloacae 118564 [2]; [11],0.5 µg/mL
same,MICantibiotic [MICcombo],E. cloacae 118564 [2]; [12],0.5 µg/mL
same,Interpretation,A. baumannii AB027; UTBLP + novobiocin,Synergy (FICI ≤ 0.5 is synergistic)
same,Interpretation,A. baumannii AB027; UTBLP + rifampicin,Synergy (FICI ≤ 0.5 is synergistic)
same,MICUTBLP,A. baumannii AB027; plate with novobiocin,128 µg/mL
same,MICUTBLP,A. baumannii AB027; plate with rifampicin,128 µg/mL
same,MICUTBLP [MICcombo],A. baumannii AB027; [9],1 µg/mL
same,MICUTBLP [MICcombo],A. baumannii AB027; [10],2 µg/mL
same,MICantibiotic [MICcombo],A. baumannii AB027; [11],0.25 µg/mL
same,MICantibiotic [MICcombo],A. baumannii AB027; [12],0.016 µg/mL
same,Interpretation,A. baumannii 92247; UTBLP + novobiocin,Synergy (FICI ≤ 0.5 is synergistic)
same,Interpretation,A. baumannii 92247; UTBLP + rifampicin,Synergy (FICI ≤ 0.5 is synergistic)
same,MICUTBLP,A. baumannii 92247; plate with novobiocin,32 µg/mL
same,MICUTBLP,A. baumannii 92247; plate with rifampicin,32 µg/mL
same,MICUTBLP [MICcombo],A. baumannii 92247; [9],1 µg/mL
same,MICUTBLP [MICcombo],A. baumannii 92247; [10],2 µg/mL
same,MICantibiotic [MICcombo],A. baumannii 92247; [11],0.125 µg/mL
same,MICantibiotic [MICcombo],A. baumannii 92247; [12],0.063 µg/mL
same,Interpretation,A. baumannii ATCC 17978; UTBLP + chloramphenicol,Additive (0.5 < x ≤ 4 is additive)
same,Interpretation,A. baumannii ATCC 17978; UTBLP + niclosamide,Synergy (FICI ≤ 0.5 is synergistic)
same,Interpretation,A. baumannii ATCC 17978; UTBLP + novobiocin,Synergy (FICI ≤ 0.5 is synergistic)
same,Interpretation,A. baumannii ATCC 17978; UTBLP + rifampicin,Synergy (FICI ≤ 0.5 is synergistic)
same,MICUTBLP,A. baumannii ATCC 17978; plate with chloramphenicol,64 µg/mL
same,MICUTBLP,A. baumannii ATCC 17978; plate with niclosamide,64 µg/mL
same,MICUTBLP,A. baumannii ATCC 17978; plate with novobiocin,64 µg/mL
same,MICUTBLP,A. baumannii ATCC 17978; plate with rifampicin,64 µg/mL
same,MICUTBLP [MICcombo],A. baumannii ATCC 17978; [13],4 µg/mL
same,MICUTBLP [MICcombo],A. baumannii ATCC 17978; [14],0.5 µg/mL
same,MICUTBLP [MICcombo],A. baumannii ATCC 17978; [9],2 µg/mL
same,MICUTBLP [MICcombo],A. baumannii ATCC 17978; [10],1 µg/mL
same,MICantibiotic [MICcombo],A. baumannii ATCC 17978; [15],32 µg/mL
same,MICantibiotic [MICcombo],A. baumannii ATCC 17978; [16],1 µg/mL
same,MICantibiotic [MICcombo],A. baumannii ATCC 17978; [11],0.125 µg/mL
same,MICantibiotic [MICcombo],A. baumannii ATCC 17978; [12],0.031 µg/mL
same,MIC,S. aureus ATCC 29213,64 µg/mL
same,MIC,MRSA ATCC 33592,64 µg/mL
same,Interpretation,P. aeruginosa PAO1 [3]; UTBLP + chloramphenicol,Synergy (FICI ≤ 0.5 is synergistic)
same,Interpretation,P. aeruginosa PAO1 [3]; UTBLP + niclosamide,Synergy (FICI ≤ 0.5 is synergistic)
same,Interpretation,P. aeruginosa PAO1 [3]; UTBLP + novobiocin,Synergy (FICI ≤ 0.5 is synergistic)
same,Interpretation,P. aeruginosa PAO1 [3]; UTBLP + rifampicin,Synergy (FICI ≤ 0.5 is synergistic)
same,MICUTBLP,P. aeruginosa PAO1 [3]; plate with chloramphenicol,> 128 µg/mL
same,MICUTBLP,P. aeruginosa PAO1 [3]; plate with niclosamide,> 128 µg/mL
same,MICUTBLP,P. aeruginosa PAO1 [3]; plate with novobiocin,> 128 µg/mL
same,MICUTBLP,P. aeruginosa PAO1 [3]; plate with rifampicin,> 128 µg/mL
same,MICUTBLP [MICcombo],P. aeruginosa PAO1 [3]; [13],2 µg/mL
same,MICUTBLP [MICcombo],P. aeruginosa PAO1 [3]; [14],4 µg/mL
same,MICUTBLP [MICcombo],P. aeruginosa PAO1 [3]; [9],16 µg/mL
same,MICUTBLP [MICcombo],P. aeruginosa PAO1 [3]; [10],16 µg/mL
same,MICantibiotic [MICcombo],P. aeruginosa PAO1 [3]; [15],2 µg/mL
same,MICantibiotic [MICcombo],P. aeruginosa PAO1 [3]; [16],4 µg/mL
same,MICantibiotic [MICcombo],P. aeruginosa PAO1 [3]; [11],8 µg/mL
same,MICantibiotic [MICcombo],P. aeruginosa PAO1 [3]; [12],0.5 µg/mL
same,Interpretation,[4]; UTBLP + novobiocin,Synergy (FICI ≤ 0.5 is synergistic)
same,Interpretation,[4]; UTBLP + rifampicin,Synergy (FICI ≤ 0.5 is synergistic)
same,MICUTBLP,[4]; plate with novobiocin,128 µg/mL
same,MICUTBLP,[4]; plate with rifampicin,> 128 µg/mL
same,MICUTBLP [MICcombo],[4]; [9],4 µg/mL
same,MICUTBLP [MICcombo],[4]; [10],8 µg/mL
same,MICantibiotic [MICcombo],[4]; [11],16 µg/mL
same,MICantibiotic [MICcombo],[4]; [12],0.5 µg/mL
same,Interpretation,[5]; UTBLP + novobiocin,Synergy (FICI ≤ 0.5 is synergistic)
same,Interpretation,[5]; UTBLP + rifampicin,Synergy (FICI ≤ 0.5 is synergistic)
same,MICUTBLP,[5]; plate with novobiocin,> 128 µg/mL
same,MICUTBLP,[5]; plate with rifampicin,> 128 µg/mL
same,MICUTBLP [MICcombo],[5]; [9],16 µg/mL
same,MICUTBLP [MICcombo],[5]; [10],16 µg/mL
same,MICantibiotic [MICcombo],[5]; [11],16 µg/mL
same,MICantibiotic [MICcombo],[5]; [12],32 µg/mL
same,MIC,[6],128 µg/mL
same,MIC,[7],> 128 µg/mL
same,MIC,P. aeruginosa PAO1 [8],>128 µg/mL
